Reference: PubChem BioAssay (NCI)
Where “and” joins values, the source holds several entries; their conditions need not be identical. Equal entries are not always repeated.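 Five compound concentrations were applied to cells in 96-well plates for 48 hours; endpoints were derived by simple linear interpolation of the resulting dose-response curve. GI50: concentration for 50% inhibition of growth. The concentration for full growth arrest is given as TGI.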

How the values were obtained:
Experiment in all cases: DTP human tumour cell line panel, 48 h
786-0 renal = test system: 786-0 renal
A549 NSCLC = test system: A549 NSCLC
CAKI-1 renal = test system: CAKI-1 renal
COLO 205 colon = test system: COLO 205 colon
HCT-15 colon = test system: HCT-15 colon
HL-60(TB) leukemia = test system: HL-60(TB) leukemia
HOP-92 NSCLC = test system: HOP-92 NSCLC
HS 578T breast = test system: HS 578T breast
HT29 colon = test system: HT29 colon
LOX IMVI melanoma = test system: LOX IMVI melanoma
MOLT-4 leukemia = test system: MOLT-4 leukemia
NCI-H226 lung = test system: NCI-H226 lung
OVCAR-4 ovarian = test system: OVCAR-4 ovarian
SK-MEL-2 melanoma = test system: SK-MEL-2 melanoma
UACC-62 melanoma = test system: UACC-62 melanoma

SMILES | TGI (786-0 renal) [µM] | TGI (A549 NSCLC) [µM] | TGI (CAKI-1 renal) [µM] | TGI (COLO 205 colon) [µM] | TGI (HCT-15 colon) [µM] | TGI (HL-60(TB) leukemia) [µM] | TGI (HOP-92 NSCLC) [µM] | TGI (HS 578T breast) [µM] | TGI (HT29 colon) [µM] | TGI (LOX IMVI melanoma) [µM] | TGI (MOLT-4 leukemia) [µM] | TGI (NCI-H226 lung) [µM] | TGI (OVCAR-4 ovarian) [µM] | TGI (SK-MEL-2 melanoma) [µM] | TGI (UACC-62 melanoma) [µM] | GI50 (COLO 205 colon) | GI50 (HL-60(TB) leukemia) [µM] | GI50 (HOP-92 NSCLC)
N#C/C(=C\N1CCNC1=S)C(=O)c1ccc2ccccc2c1 | > 100 | > 100 | > 100 | > 100 | > 100 | > 100 | > 100 | > 100 | > 100 | > 100 | > 100 | > 100 | > 100 | > 100 | > 100 |  |  | 
CCCCCCCCCCCCCCCCCCNc1ccn(C2OC(COP(=O)(O)OCCCCCCCCCCCCCCCC)C(O)C2O)c(=O)n1 (stereo unspecified) | > 100 | > 100 | > 100 | > 100 | > 100 | > 100 | > 100 | > 100 | > 100 | > 100 | > 100 | > 100 | > 100 | > 100 | > 100 |  |  | 
CCOc1ccccc1N=NC1C(=O)N(C(=O)CC(=O)Nc2ccccc2Cl)N=C1C (stereo unspecified) | > 100 | > 100 | > 100 | > 100 | > 100 | > 100 | 70 | 89 | > 100 | > 100 | > 100 | > 100 | > 100 | > 100 | > 100 |  |  | 
C=C(Cl)C(Br)(CCl)CCC(Cl)C(C)C (stereo unspecified) (tested in a mixture with another compound) | 2.74 | 31.9 | 7.54 | 5 |  |  | 3.46 | 7.48 | 2.75 | 1.23 | 48 | 13.6 | 3.82 | 2.97 | 2.59 |  |  | 
COc1cc(C(CN)N(C)C)cc(OC)c1OC (stereo unspecified) | > 100 | > 100 | > 100 | > 100 | > 100 | > 100 | > 100 | > 100 | > 100 | > 100 | > 100 | 71.6 | > 100 |  | > 100 |  |  | 
Cn1c2nc(=Nc3ccc(Cl)cc3)n3ccc4ccccc4c3c2c(=O)n1-c1ccccc1 | > 100 |  | > 100 | > 100 | > 100 | > 100 |  | > 100 | > 100 | > 100 | > 100 | > 100 | > 100 | > 100 | > 100 |  |  | 
O=[N+]([O-])/C(Cl)=C(\Sc1ccccc1)C(Cl)=C(Cl)Cl | 1.07 | 1.53 | 3.88 | 0.608 | 1.5 | 0.515 | 3.4 | 1.8 | 1.8 | 0.97 | 1.58 | 4.47 | 3.65 |  | 1.98 |  |  | 
Cn1cc(C=C(C#N)C#N)c(=O)n(C)c1=O | > 100 | > 100 | > 100 | > 100 | > 100 |  | > 100 | > 100 | > 100 | > 100 | > 100 | > 100 | > 100 | > 100 | > 100 |  |  | 
COC(=O)c1ccc(NCc2cc(O)c3ccccc3c2O)cc1 | 46.5 | 23.4 | 13.4 | 25.4 | 28.8 | > 28.5 | 9.97 | 98.2 | 48.5 | 11.5 | 9.73 | 40 | 25.9 | 43.2 | 10.3 |  |  | 
O=C(c1cccs1)N(C(=S)OCc1ccccn1)c1ccccc1 | > 100 |  | > 100 | > 100 | > 100 | > 100 |  | > 100 | > 100 | > 100 | > 100 | > 100 |  | > 100 | > 100 |  |  | 
COC(=O)c1ccc(/C=N/c2cc(C)nn2-c2ccccc2)cc1 | > 100 | > 100 | > 100 | 43 | > 100 | > 100 | > 100 | > 100 | 92.1 | > 100 | > 100 | > 100 | > 100 | > 100 | > 100 |  |  | 
c1ccc(SCCP(CCP(c2ccccc2)c2ccccc2)c2ccccc2)cc1 (stereo unspecified) | > 100 | > 100 | 63.3 | 15.8 | > 100 | > 22.2 | 15.1 | > 100 | > 100 |  | 81.5 | > 87.6 | 97.1 | 7.52 |  |  |  | 
O=C(C1=CCC2(CC1)OCCO2)N(Cc1ccccc1)c1ccccc1I | 43 | > 100 | 88.3 | 36.5 | 57.2 | > 100 | 43.2 | 22.7 | 36 | 56.8 | > 100 | 34.8 | 34.4 | 38.7 | 31.1 |  |  | 
CC(C)Nc1n[nH]c(=O)n1C(C)C | > 100 | > 100 | > 100 | > 100 | > 100 | > 100 | > 100 | > 100 | > 100 | > 100 | > 100 | > 100 |  | > 100 | > 100 |  |  | 
C[C@@H]1O[C@@H]2OCC[C@@H]2C2=C1C(=O)c1ccccc1C2=O | 29.1 | 41.9 | 29.8 | 51.3 | 44.5 | 19.1 | 18.9 | > 100 | > 100 | 5.65 | > 100 | 61.5 | 16.4 | 25.7 | 17.4 |  |  | 
CC(C)C(OC(=O)c1cc(NC(=S)c2ccccc2)ccc1Cl)C(C)C | 50.8 | > 94.7 | 51.9 | 41.7 | 74.4 | 55.8 | 34.4 | 69 | 34.4 | 70.4 | > 64.2 | 45.5 | > 100 | 52.6 | 38.9 |  |  | 

SMILES | TGI (786-0 renal) [µM] | TGI (A549 NSCLC) [µM] | TGI (CAKI-1 renal) [µM] | TGI (COLO 205 colon) [µM] | TGI (HCT-15 colon) [µM] | TGI (HL-60(TB) leukemia) [µM] | TGI (HOP-92 NSCLC) [µM] | TGI (HS 578T breast) [µM] | TGI (HT29 colon) [µM] | TGI (LOX IMVI melanoma) [µM] | TGI (MOLT-4 leukemia) [µM] | TGI (NCI-H226 lung) [µM] | TGI (OVCAR-4 ovarian) [µM] | TGI (SK-MEL-2 melanoma) [µM] | TGI (UACC-62 melanoma) [µM] | GI50 (COLO 205 colon) | GI50 (HL-60(TB) leukemia) [µM] | GI50 (HOP-92 NSCLC)
Nc1nonc1-c1noc(-c2nonc2N)[n+]1[O-] | > 100 | 90.7 | 51.6 |  | 49.1 |  | > 100 | > 100 | 33.6 | > 100 | > 100 | > 100 | > 100 | > 100 | > 100 |  |  | 
Cc1ccc(-c2n[nH]c(CC#N)n2)cc1 | > 100 | > 100 | > 100 | > 100 | > 100 | > 100 | > 100 | > 100 | > 100 | > 100 | > 100 |  | > 100 | > 100 | > 100 |  |  | 
S=c1scc(-c2ccc(Cl)cc2)n1OC1CCCC1 | > 100 | > 100 | > 100 | 26.5 | > 100 | 71.3 | > 100 | > 100 | > 100 | > 100 | 67.7 |  | > 100 | 44.6 | > 100 |  |  | 
CCCCCCCCCCCCCC/C(=C/OCC[N+](C)(C)C)OC(C)=O (tested in a mixture with another compound) | 2.34 | 6.87 | 4.04 | 5.08 | 19.5 | 3.27 | 3.75 | 5.26 | 1.82 |  |  | 14.7 | 7.7 |  | 5.25 |  |  | 
c1csc(-c2cc(-c3ccsc3)c(-c3cccs3)s2)c1 | > 100 | > 100 | > 100 | 82.5 | > 100 |  | > 100 | > 100 | > 100 |  | > 100 | > 100 | > 100 |  | > 100 |  |  | 
COC(=O)C1=C(C(=O)OC)C2(/N=C(\Nc3ccccc3)c3ccccc3)N(c3ccc(OC)cc3)CC(c3ccccc3)N2O1 (stereo unspecified) | > 100 | > 100 | > 100 | > 100 | > 100 | > 100 | > 100 | > 100 | > 100 | > 100 | > 100 |  | > 100 | > 100 | > 100 |  |  | 
O=C1C=CC(=O)c2c(O)c(Nc3ccc(OC(F)(F)F)cc3)c(Cl)c(O)c21 | 1.26 | 11.7 | 2.96 | 2.84 | 1.44 | 3.24 |  | 10.8 | 1.28 | 0.677 |  | 3.44 | 2.98 | 3.48 | 2.29 |  |  | 
CNC(=O)OC(C)CN1c2ccccc2Sc2ccccc21 (stereo unspecified) | > 100 | > 100 | > 100 | > 100 | > 100 | > 100 | > 100 | > 100 | > 100 | > 100 | > 100 | > 100 | > 100 |  | > 100 |  |  | 
O=C1CC(CC(O)C(O)CO)CC(=O)N1 (stereo unspecified) | > 100 | > 100 | > 100 |  | > 100 | > 100 | > 100 | > 100 | > 100 | > 100 | > 100 | > 100 |  |  |  |  |  | 
O=C(CN1CCOCC1)NC1=Nc2ncccc2C(=O)NN1 | > 10 | > 10 |  |  | > 10 | > 10 | > 10 | > 10 | > 10 | > 10 | > 10 | > 10 |  | > 10 | > 10 |  |  | 
O=C(CCNC(=O)OCc1ccccc1)OCCCNC(=O)OCc1ccccc1 | > 100 | > 100 |  | > 100 | > 100 | > 100 | > 100 | > 100 | > 100 | > 100 | > 100 | > 100 | > 100 |  | > 100 |  |  | 
c1ccc(N=C2SC(c3ccccc3)CN2C23CC4CC(CC(C4)C2)C3)cc1 (stereo unspecified) | > 100 | > 100 | > 100 | > 100 | > 100 | > 100 | > 100 | > 100 | > 100 | > 100 | > 100 | > 100 | > 100 | > 100 |  |  |  | 
CC(=O)OCC1OC(Sc2nc(-c3ccc(C)cc3)c(C#N)c(=O)n2C2OC(COC(C)=O)C(OC(C)=O)C(OC(C)=O)C2OC(C)=O)C(OC(C)=O)C(OC(C)=O)C1OC(C)=O (stereo unspecified) | > 100 | > 100 | > 100 | > 100 | > 100 | 76.6 | > 100 | > 100 | > 100 | > 100 | > 100 | > 100 |  | > 100 | > 100 | > 100 µM and 10.3 µM | 25.5 | > 100 µM and 41.7 µM
O=c1oc2ccccc2c(O)c1C(c1ccc([N+](=O)[O-])cc1)c1c(O)c2ccccc2oc1=O | > 100 |  | > 100 | > 100 | > 100 | > 100 | > 100 | > 100 | > 100 | > 100 | > 100 | > 100 | > 100 | > 100 | > 100 |  |  | 
CCOC(=O)c1c2ccccc2n2c(=O)n(C)nnc12 | > 100 | > 100 | > 100 | > 100 | > 100 | > 100 | > 100 | > 100 |  | > 100 |  | > 100 | > 100 | > 100 | > 100 |  |  | 
Cc1nnc2nc(-c3ccc(Cl)cc3Cl)cc(-c3ccc(Cl)cc3)n12 | > 100 | > 100 | > 100 | 49.6 | > 100 | > 100 | 37.7 | > 100 | 42.3 | > 100 | 96 | > 100 | 39.6 |  | > 100 |  |  | 
